Laboratory results published in patent publication US20210255193A1, “LYSINE REACTIVE PROBES AND USES THEREOF” (The Scripps Research Institute, priority 2017, published 2021).

Tests used:
Test in all cases: competitive isoTOP-ABPP
Type in all cases: binding
[1] = target: T1, LMNA Prelamin-A/C (Homo sapiens, UniProt P02545); settings: for isoTOP-ABPP ratio (R) at liganded lysine P02545_K135: sol, 231
T1 construct: isoTOP-ABPP experiments performed in cell lysates (in vitro); endogenous in cells; host or cells: MDA-MB-231 soluble lysate
T1 sequence (P02545 1-664): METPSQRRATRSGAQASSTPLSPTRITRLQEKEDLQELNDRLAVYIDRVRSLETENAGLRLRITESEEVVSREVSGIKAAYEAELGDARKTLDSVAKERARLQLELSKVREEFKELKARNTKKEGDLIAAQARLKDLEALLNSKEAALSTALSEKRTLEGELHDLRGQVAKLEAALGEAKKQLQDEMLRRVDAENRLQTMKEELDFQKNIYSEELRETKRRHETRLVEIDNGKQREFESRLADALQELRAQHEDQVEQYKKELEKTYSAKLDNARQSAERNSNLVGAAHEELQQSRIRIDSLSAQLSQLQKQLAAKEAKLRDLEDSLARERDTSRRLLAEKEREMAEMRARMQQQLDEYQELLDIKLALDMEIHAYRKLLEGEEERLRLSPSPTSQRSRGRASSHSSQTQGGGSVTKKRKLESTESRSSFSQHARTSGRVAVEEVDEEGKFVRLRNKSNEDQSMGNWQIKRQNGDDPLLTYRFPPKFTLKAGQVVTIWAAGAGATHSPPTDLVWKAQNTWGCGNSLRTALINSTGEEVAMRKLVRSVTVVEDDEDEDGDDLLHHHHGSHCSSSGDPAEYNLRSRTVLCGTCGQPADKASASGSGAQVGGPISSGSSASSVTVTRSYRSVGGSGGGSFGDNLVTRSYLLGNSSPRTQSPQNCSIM
How it was run: (§1)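 Fragments at 50 μM (activated esters) or 100 μM (guanidinylating agents) were incubated with 0.5 ml lysate before probe labeling. After 0.1 mM STP-alkyne for 1 h, samples were clicked to isotopically distinct TEV tags, and R taken as DMSO-over-compound MS1 peak-area ratio.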

[2] = target: T2, EEF2 Elongation factor 2 (Homo sapiens, UniProt P13639); settings: for isoTOP-ABPP ratio (R) at liganded lysine P13639_K235 / isoTOP-ABPP ratio (R) at liganded lysine P13639_K318: sol, 231
T2 construct: isoTOP-ABPP experiments performed in cell lysates (in vitro); endogenous in cells; host or cells: soluble proteome of human cancer cell lines (MDA-MB-231; Ramos and Jurkat also prepared)
How it was run: as §1

[3] = target: T3, WARS Tryptophan--tRNA ligase, cytoplasmic (Homo sapiens, UniProt P23381); settings: for isoTOP-ABPP ratio (R) at liganded lysine P23381_K256: sol, 231
T3 construct: isoTOP-ABPP experiments performed in cell lysates (in vitro); endogenous in cells; host or cells: soluble proteome of human cancer cell lines (MDA-MB-231; Ramos and Jurkat also prepared)
T3 sequence (P23381 1-471): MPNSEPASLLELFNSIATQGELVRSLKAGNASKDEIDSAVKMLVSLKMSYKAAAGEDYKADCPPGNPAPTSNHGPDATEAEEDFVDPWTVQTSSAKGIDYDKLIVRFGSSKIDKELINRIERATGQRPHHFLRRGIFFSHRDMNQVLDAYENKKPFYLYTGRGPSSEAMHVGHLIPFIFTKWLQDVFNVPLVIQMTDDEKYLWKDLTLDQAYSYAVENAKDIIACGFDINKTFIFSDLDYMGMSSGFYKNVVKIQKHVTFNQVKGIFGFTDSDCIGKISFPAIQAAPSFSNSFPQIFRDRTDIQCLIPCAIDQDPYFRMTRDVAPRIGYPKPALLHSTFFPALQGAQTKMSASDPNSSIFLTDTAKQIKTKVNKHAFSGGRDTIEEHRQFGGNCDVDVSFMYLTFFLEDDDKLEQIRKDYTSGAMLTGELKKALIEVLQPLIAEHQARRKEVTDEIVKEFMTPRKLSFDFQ
How it was run: as §1

[4] = target: T4, KPNA2 Importin subunit alpha-2 (Homo sapiens, UniProt P52292); settings: for isoTOP-ABPP ratio (R) at liganded lysine P52292_K459: sol, 231
T4 construct: isoTOP-ABPP experiments performed in cell lysates (in vitro); endogenous in cells; host or cells: soluble proteome of human cancer cell lines (MDA-MB-231, Ramos, Jurkat)
How it was run: as §1

| SMILES | isoTOP-ABPP ratio (R) at liganded lysine P02545_K135 ([1]; 50 uM, in vitro) | isoTOP-ABPP ratio (R) at liganded lysine P13639_K235 ([2]; 50 uM, in vitro) | isoTOP-ABPP ratio (R) at liganded lysine P23381_K256 ([3]; 50 uM, in vitro) | isoTOP-ABPP ratio (R) at liganded lysine P52292_K459 ([4]; 50 uM, in vitro) | isoTOP-ABPP ratio (R) at liganded lysine P13639_K318 ([2]; 50 uM, in vitro) | other results |
| --- | --- | --- | --- | --- | --- | --- |
| COc1cc(CCC(=O)Oc2ccc([N+](=O)[O-])cc2[N+](=O)[O-])cc(OC)c1OC [fragment 33, 2,4-Dinitrophenyl 3-(3,4,5-trimethoxyphenyl)propanoate] | – | – | – | – | – | isoTOP-ABPP reactivity ratio at lysine P02545_K135 ([1]; 50 uM, 231 sol, in vitro): 0.7; isoTOP-ABPP reactivity ratio at lysine P13639_K235 ([2]; 50 uM, 231 sol, in vitro): 1.0; isoTOP-ABPP reactivity ratio at lysine P13639_K318 ([2]; 50 uM, 231 sol, in vitro): 0.9; isoTOP-ABPP reactivity ratio at lysine P23381_K256 ([3]; 50 uM, 231 sol, in vitro): 0.8; isoTOP-ABPP reactivity ratio at lysine P52292_K459 ([4]; 50 uM, 231 sol, in vitro): 1.8 |
| O=C(Oc1ccc([N+](=O)[O-])cc1[N+](=O)[O-])C1CCN(C(=O)OCc2ccccc2)CC1 [fragment 34, 1-Benzyl 4-(2,4-dinitrophenyl) piperidine-1,4-dicarboxylate] | 1.2 | 1.0 | 1.0 | 1.0 | – | – |
| O=C(Oc1ccc([N+](=O)[O-])cc1[N+](=O)[O-])c1ccc2ccccc2n1 [fragment 35, 2,4-Dinitrophenyl quinoline-2-carboxylate] | 0.7 | 1.1 | 1.1 | 1.3 | 1.1 | – |
| O=C(CCc1coc2cc(F)ccc2c1=O)Oc1ccc([N+](=O)[O-])cc1[N+](=O)[O-] [fragment 36, 2,4-Dinitrophenyl 3-(7-fluoro-4-oxo-4H-chromen-3-yl)propanoate] | 0.8 | 1.0 | 1.0 | 9.2 | 1.0 | – |
| O=C(Oc1ccc([N+](=O)[O-])cc1[N+](=O)[O-])c1ccc(-c2ccccc2)cc1 [fragment 37, 2,4-Dinitrophenyl [1,1′-biphenyl]-4-carboxylate] | 0.9 | 1.0 | 0.4 | 0.9 | 1.0 | – |
| O=C(CC12CC3CC(CC(C3)C1)C2)Oc1ccc([N+](=O)[O-])cc1[N+](=O)[O-] [fragment 38, 2,4-Dinitrophenyl 2-(adamantan-1-yl)acetate] | 0.8 | 0.9 | 1.4 | 20.0 | 0.9 | – |
| O=C(Oc1ccc([N+](=O)[O-])cc1[N+](=O)[O-])c1ccc(Oc2ccccc2)cc1 [fragment 39, 2,4-Dinitrophenyl 4-phenoxybenzoate] | 1.0 | 0.9 | 0.9 | 1.0 | 0.9 | – |
| O=C(Oc1ccc([N+](=O)[O-])cc1[N+](=O)[O-])c1ccccc1Nc1cccc(C(F)(F)F)c1 [fragment 40, 2,4-Dinitrophenyl 2-((3-(trifluoromethyl)phenyl)amino)benzoate] | 1.2 | 0.9 | 1.1 | 1.7 | 0.9 | – |
| CC(C)(C)OC(=O)NCCCC(=O)Oc1ccc([N+](=O)[O-])cc1[N+](=O)[O-] [fragment 41, 2,4-Dinitrophenyl 4-((tert-butoxycarbonyl)amino)butanoate] | 1.1 | 1.0 | 0.9 | 2.3 | 1.1 | – |
| O=C(Oc1ccc([N+](=O)[O-])cc1[N+](=O)[O-])C(c1ccccc1)(c1ccccc1)c1ccccc1 [fragment 42, 2,4-Dinitrophenyl 2,2,2-triphenylacetate] | 1.0 | 1.0 | 1.1 | 0.9 | 1.0 | – |
| CC(=O)Oc1ccc([N+](=O)[O-])cc1[N+](=O)[O-] [fragment 43, 2,4-Dinitrophenyl acetate] | 20.0 | 1.1 | 1.0 | 2.6 | 1.2 | – |
| N#Cc1ccc(C(=O)Oc2ccc([N+](=O)[O-])cc2[N+](=O)[O-])cc1 [fragment 44, 2,4-Dinitrophenyl 4-cyanobenzoate] | – | – | – | – | – | isoTOP-ABPP ratio, lysine P02545_K135 ([1]; 50 uM_231_sol_in vitro): 0.9; isoTOP-ABPP ratio, lysine P13639_K235 ([2]; 50 uM_231_sol_in vitro): 1.0; isoTOP-ABPP ratio, lysine P13639_K318 ([2]; 50 uM_231_sol_in vitro): 1.1; isoTOP-ABPP ratio, lysine P23381_K256 ([3]; 50 uM_231_sol_in vitro): 1.1; isoTOP-ABPP ratio, lysine P52292_K459 ([4]; 50 uM_231_sol_in vitro): 1.6 |
| O=C(CCc1ccc2c(c1)OCO2)Oc1ccc([N+](=O)[O-])cc1[N+](=O)[O-] [fragment 45, 2,4-Dinitrophenyl 3-(benzo[d][1,3]dioxol-5-yl)propanoate] | – | – | – | – | – | isoTOP-ABPP ratio, lysine P02545_K135 ([1]; 50 uM_231_sol_in vitro): 0.9; isoTOP-ABPP ratio, lysine P13639_K235 ([2]; 50 uM_231_sol_in vitro): 1.0; isoTOP-ABPP ratio, lysine P13639_K318 ([2]; 50 uM_231_sol_in vitro): 1.0; isoTOP-ABPP ratio, lysine P23381_K256 ([3]; 50 uM_231_sol_in vitro): 1.1; isoTOP-ABPP ratio, lysine P52292_K459 ([4]; 50 uM_231_sol_in vitro): 1.7 |
| O=C(ON1C(=O)CCC1=O)c1cc(C(F)(F)F)cc(C(F)(F)F)c1 [fragment 46, 3,5-Bis(trifluoromethyl)benzoic acid NHS ester] | – | – | – | – | – | isoTOP-ABPP ratio, lysine P02545_K135 ([1]; 50 uM_231_sol_in vitro): 0.7; isoTOP-ABPP ratio, lysine P13639_K235 ([2]; 50 uM_231_sol_in vitro): 1.3; isoTOP-ABPP ratio, lysine P13639_K318 ([2]; 50 uM_231_sol_in vitro): 1.1; isoTOP-ABPP ratio, lysine P23381_K256 ([3]; 50 uM_231_sol_in vitro): 1.6; isoTOP-ABPP ratio, lysine P52292_K459 ([4]; 50 uM_231_sol_in vitro): 1.4 |
| COC(=O)NC(=NC(=O)OCC1c2ccccc2-c2ccccc21)n1cccn1 [fragment 49, N-Methoxycarbonyl-N′-9-fluorenylmethoxycarbonyl-pyrazole-1-carboxamidine] | – | – | – | – | – | isoTOP-ABPP ratio, lysine P02545_K135 ([1]; 100 uM_231_sol_in vitro): 1.1; isoTOP-ABPP ratio, lysine P13639_K235 ([2]; 100 uM_231_sol_in vitro): 6.2; isoTOP-ABPP ratio, lysine P13639_K318 ([2]; 100 uM_231_sol_in vitro): 2.0; isoTOP-ABPP ratio, lysine P23381_K256 ([3]; 100 uM_231_sol_in vitro): 1.0; isoTOP-ABPP ratio, lysine P52292_K459 ([4]; 100 uM_231_sol_in vitro): 1.1 |
| CC(C)(C)OC(=O)N=C(NC(=O)OC(C)(C)C)n1cccn1 [fragment 50, reference compound] | – | – | – | – | – | isoTOP-ABPP ratio, lysine P02545_K135 ([1]; 100 uM_231_sol_in vitro): 1.3; isoTOP-ABPP ratio, lysine P13639_K235 ([2]; 100 uM_231_sol_in vitro): 7.5; isoTOP-ABPP ratio, lysine P13639_K318 ([2]; 100 uM_231_sol_in vitro): 1.8; isoTOP-ABPP ratio, lysine P23381_K256 ([3]; 100 uM_231_sol_in vitro): 1.1; isoTOP-ABPP ratio, lysine P52292_K459 ([4]; 100 uM_231_sol_in vitro): 1.6 |
